Assay results as given in patent EP4483904A1, “POLYOXOMETALATES AS MEMBRANE CARRIERS” (Universität Wien, priority 2023, dated 2025).

Columns and labels:
[1] = system: heptaArg; test: Isothermal titration calorimetry, POM into heptaArg; assay type: binding; conditions: 10 mM Mes, pH 5.5, 298.15 K
Procedure: All experiments were performed with a VP-ITC MicroCalorimeter from MicroCal, Int,. at atmospheric pressure and 298.15 K. Solutions were degassed and thermostatic prior the titration experiments in a ThermoVac accessory. A constant volume of POM ([PVW11]^4- or [SiMoW11]^4-) (10 µL per injection) was injected into the oligopeptide solution (heptaArg, protamine, polyArg or heptaLys) in 10 mM Mes, pH 5.5 to determine the apparent binding affinity of [PVW11]^4- and [SiMoW11]^4- with the oligopeptides. Dilution heats were determined by titration of the POM into buffer and subtracted from the reaction heat. The neat reaction heat was fitted with Origin 7.0 software by using the "one-set-of-sites" model to obtain the complex stability constant (Ka) and molar reaction enthalpy (ΔH°). The free energy (ΔG°) and entropy changes (ΔS°) were obtained according to the relation: ΔG° = - R TInKa = ΔH°-TΔS°.

[2] = system: CHO-K1 cells; test: Confocal imaging of FITC-Arg8 cellular uptake; assay type: cell-based; conditions: 4 µM FITCArg8, 5 and 10 µM carrier, 1 h, fixed cells, preliminary
Procedure: For confocal microscopy experiments, CHO-K1 cells were seeded into 12-well plates (Eppendorf) at a density of 1×10^5 cells/well (per 1 mL) and incubated for 24 h in Ham's F-12 containing 10 % (v/v) fetal bovine serum at 37 °C in a 5 % CO2. The cells were washed twice with PBS, and then incubated with POMs and FITC-Arg8 (4 µM) for 1 h at 37 °C, cells were washed twice with Hank's Balanced Salt solution containing 100 µg/mL heparin, twice again with PBS and fixed with 1 mL cold 4 % paraformaldehyde for 20 min. The cells were rewashed twice with PBS and subsequently the nuclei were stained with 2 µg/mL DAPI for 10 min at room temperature before imaging. Cells were imaged by LSM 980 confocal laser scanning microscope. Images were processed with Zen 3.2 software (Zeiss).

[3] = U-tube transport experiments (CF transport through chloroform layer); conditions: CF 100 µM, POM 50 µM, heptaArg 10 µM
Procedure: The U-tubes were house-made, similar to those of Rebek and Matile consisting in a small beaker with a central glass barrier, separating the two aqueous layers, cis (sampling phase) and trans (receiving phase), but allowing an interface chloroform layer below the cis and trans phases. 3 mL CHCl3 are placed into the U-tube and 1 mL of the cis (combinations of carrier (POM), cargo (heptaArg) and CF in buffer) and trans (1 mL buffer) phases were added. The organic phase was stirred at 700 rpm at room temperature. Aliquots (25 µL) from the trans phase were taken at different times, 400 µL of buffer were added and measured by fluorescence.
In the U-tube experiments, the trans phase contained only buffer, and the cis phase is loaded with combinations of CF, carrier (POM) and cargo (heptaArg). Aliquots of the trans phase are taken and evaluated by fluorescence at different times. The trans phase is initially (t= 0) nonfluorescent, but the transport of CF from the cis phase through the chloroform barrier leads to a fluorescence signal for successful transport. […] In the ternary mixture, however, as expected, highly efficient transport is observed. This is consistent with the transport of a POM•heptaArg•CF complex through the organic phase. […]

Substance	HeptaArg Ka/ 10^7 [1]	FITCArg8 uptake (confocal fluorescence microscopy) [2]	carrier transport through hydrophobic bulk phase (U-tube) [3]
K4[α-P^VV^VW^VI11O40]·4H2O [[PVW11]^4-]	5.7 ± 0.7 10^7 M-1	strong diffuse fluorescence	can seize and transport a hydrophilic cargo even through a hydrophobic bulk phase
K4[α-Si^IVMo^VIW^VI11O40]·24H2O [[SiMoW11]^4-]	0.6 10^7 M-1	strong diffuse fluorescence	can seize and transport a hydrophilic cargo even through a hydrophobic bulk phase
